{
  "source": "patent US4276412A",
  "about": "“3-Trehalosamine compounds” (The Upjohn Company, priority 1979, dated 1981)",
  "key": {"[1]": {"tested_on": "D. pneumoniae UC 41", "test": "Minimal Inhibitory Concentration", "format": "cell-based", "settings": "Streptococcus pneumoniae, UC41"}, "[2]": {"tested_on": "B. subtilis (UC 564)", "test": "biounit assay against B. subtilis (paper disc, zone of growth inhibition)", "format": "cell-based", "settings": "IR-45 (OH--) column fractions after lyophilization; 12.7 mm disc, 0.08 ml, 32° C., ca 18 hours", "description": "The active fractions during the recovery and purification process are determined by assay against the microorganism Bacillus subtilis. The assay procedure is as follows:\n5.0 mls culture are centrifuged (4000×g, 10'). Serial dilutions of the supernatant solution are performed in 0.1 M phosphate buffer, pH 7.7. […] The trays are incubated at 32° C. for ca 18 hours and the zone of growth inhibition recorded.\nThe designation BU, used herein, means biounit. A biounit is defined as the concentration of the antibiotic which gives a 20 mm zone of inhibition."}, "[3]": {"tested_on": "S. flexneri UC 143", "test": "Minimal Inhibitory Concentration", "format": "cell-based", "settings": "Shigella flexneri, UC143"}, "[4]": {"tested_on": "P. vulgaris UC 93", "test": "Minimal Inhibitory Concentration", "format": "cell-based", "settings": "Proteus vulgaris, UC93"}, "[5]": {"tested_on": "S. marcescens UC 131", "test": "Minimal Inhibitory Concentration", "format": "cell-based", "settings": "Serratia marcescens, UC131"}, "[6]": {"tested_on": "S. faecalis UC 694", "test": "Minimal Inhibitory Concentration", "format": "cell-based", "settings": "Enterococcus faecalis, UC694"}, "[7]": {"tested_on": "Ps. aeruginosa UC 95", "test": "Minimal Inhibitory Concentration", "format": "cell-based", "settings": "Pseudomonas aeruginosa, UC95"}, "[8]": {"tested_on": "S. pyogenes UC 152", "test": "Minimal Inhibitory Concentration", "format": "cell-based", "settings": "Streptococcus pyogenes, UC152"}, "[9]": {"tested_on": "S. schottmuelleri UC 126", "test": "Minimal Inhibitory Concentration", "format": "cell-based"}, "[10]": {"tested_on": "S. aureus UC 76", "test": "Minimal Inhibitory Concentration", "format": "cell-based", "settings": "Staphylococcus aureus, UC76"}, "[11]": {"tested_on": "B. subtilis", "test": "antibacterial activity (in words)", "format": "cell-based"}, "[12]": {"test": "stability at various pH", "format": "physicochemical", "settings": "any pH from about 1 to about 11"}, "[13]": {"tested_on": "K. pneumoniae UC 58", "test": "Minimal Inhibitory Concentration", "format": "cell-based", "settings": "Klebsiella pneumoniae, UC58"}, "[14]": {"test": "Solubilities", "format": "physicochemical"}, "[15]": {"tested_on": "various Gram-positive and Gram-negative bacteria", "test": "antibacterial activity (in words)", "format": "cell-based", "settings": "disc assay", "description": "(§1) The testing was done on a standard microbiological disc assay system using 0.1 ml per 12.7 mm disc."}, "[16]": {"tested_on": "Staphylococcus aureus", "test": "antibacterial activity (in words)", "format": "cell-based"}, "[17]": {"tested_on": "S. typhi UC 215", "test": "Minimal Inhibitory Concentration", "format": "cell-based", "settings": "Salmonella enterica, read-out: Minimal Inhibitory Concentration"}, "[18]": {"tested_on": "P. mirabilis UC 6671", "test": "Minimal Inhibitory Concentration", "format": "cell-based", "settings": "Proteus mirabilis, UC6671"}, "[19]": {"tested_on": "Klebsiella pneumoniae UC 57", "test": "standard microbiological disc assay, zone size", "format": "cell-based", "settings": "0.1 ml per 12.7 mm disc", "description": "as §1"}, "[20]": {"tested_on": "Bacillus subtilis UC 564", "test": "standard microbiological disc assay, zone size", "format": "cell-based", "settings": "0.1 ml per 12.7 mm disc", "description": "as §1"}, "[21]": {"tested_on": "Sarcina lutea UC 130", "test": "standard microbiological disc assay, zone size", "format": "cell-based", "settings": "0.1 ml per 12.7 mm disc", "description": "as §1"}, "[22]": {"tested_on": "Bacillus subtilis UC 6033", "test": "standard microbiological disc assay, zone size", "format": "cell-based", "settings": "0.1 ml per 12.7 mm disc", "description": "as §1"}, "[23]": {"tested_on": "Staphylococcus aureus UC 3665", "test": "standard microbiological disc assay, zone size", "format": "cell-based", "settings": "0.1 ml per 12.7 mm disc", "description": "as §1"}, "[24]": {"tested_on": "Escherichia coli UC 51", "test": "standard microbiological disc assay, zone size", "format": "cell-based", "settings": "0.1 ml per 12.7 mm disc", "description": "as §1"}, "[25]": {"tested_on": "Proteus vulgaris UC 93", "test": "standard microbiological disc assay, zone size", "format": "cell-based", "settings": "0.1 ml per 12.7 mm disc", "description": "as §1"}, "[26]": {"tested_on": "Pseudomonas aeruginosa UC 95", "test": "standard microbiological disc assay, zone size", "format": "cell-based", "settings": "0.1 ml per 12.7 mm disc", "description": "as §1"}, "[27]": {"tested_on": "Staphylococcus aureus UC 80", "test": "standard microbiological disc assay, zone size", "format": "cell-based", "settings": "0.1 ml per 12.7 mm disc", "description": "as §1"}, "[28]": {"tested_on": "E. coli UC 45", "test": "Minimal Inhibitory Concentration", "format": "cell-based", "settings": "Escherichia coli, UC45"}},
  "data": [
    {"smiles": "N[C@@H]1[C@@H](O)[C@@H](O[C@H]2O[C@H](CO)[C@@H](O)[C@H](O)[C@H]2O)O[C@H](CO)[C@H]1O", "note": "[3-Trehalosamine]", "values": [
      {"measurement": "MIC", "setting": "[1]", "result": 62.5, "unit": "µg/mL"},
      {"measurement": "potency vs Bs (biounits; BU = concentration giving a 20 mm zone of inhibition)", "setting": "[2]", "result": 80, "unit": "BU/mg"},
      {"measurement": "MIC", "setting": "[3]", "result": "> 1000", "unit": "µg/mL"},
      {"measurement": "MIC", "setting": "[4]", "result": "> 1000", "unit": "µg/mL"},
      {"measurement": "MIC", "setting": "[5]", "result": "> 1000", "unit": "µg/mL"},
      {"measurement": "MIC", "setting": "[6]", "result": "> 1000", "unit": "µg/mL"},
      {"measurement": "MIC", "setting": "[7]", "result": "> 1000", "unit": "µg/mL"},
      {"measurement": "MIC", "setting": "[8]", "result": 1000, "unit": "µg/mL"},
      {"measurement": "MIC", "setting": "[9]", "result": "> 1000", "unit": "µg/mL"},
      {"measurement": "MIC", "setting": "[10]", "result": "> 1000", "unit": "µg/mL"},
      {"measurement": "antibacterial activity", "setting": "[11]", "result": "active against B. subtilis"},
      {"measurement": "stability", "setting": "[12]", "result": "stable"},
      {"measurement": "MIC", "setting": "[13]", "result": "> 1000", "unit": "µg/mL"},
      {"measurement": "solubility", "setting": "[14]; any pH from about 1 to about 11", "result": "soluble"},
      {"measurement": "solubility", "setting": "[14]; water, dilute acid, dilute base", "result": "soluble in water, dilute acid and dilute base"},
      {"measurement": "antibacterial activity", "setting": "[15]", "result": "active against various Gram-positive and Gram-negative bacteria"},
      {"measurement": "antibacterial activity", "setting": "[16]", "result": "active against Staphylococcus aureus"},
      {"measurement": "MIC", "setting": "[17]", "result": "> 1000", "unit": "µg/mL"},
      {"measurement": "MIC", "setting": "[18]", "result": "> 1000", "unit": "µg/mL"},
      {"measurement": "Zone Size", "setting": "[19]", "result": 0, "unit": "mm"},
      {"measurement": "Zone Size", "setting": "[20]", "result": 36.5, "unit": "mm"},
      {"measurement": "Zone Size", "setting": "[21]", "result": 0, "unit": "mm"},
      {"measurement": "Zone Size", "setting": "[22]", "result": 24, "unit": "mm"},
      {"measurement": "Zone Size", "setting": "[23]", "result": 30, "unit": "mm"},
      {"measurement": "Zone Size", "setting": "[24]", "result": 0, "unit": "mm"},
      {"measurement": "Zone Size", "setting": "[25]", "result": 0, "unit": "mm"},
      {"measurement": "Zone Size", "setting": "[26]", "result": 0, "unit": "mm"},
      {"measurement": "Zone Size", "setting": "[27]", "result": 32, "unit": "mm"},
      {"measurement": "MIC", "setting": "[28]", "result": "> 1000", "unit": "µg/mL"}
    ]}
  ]
}
